What was measured:
[1] = molecular target: T1, Potassium voltage-gated channel subfamily A member 3 (Homo sapiens, UniProt P22001); assay: cell-based; parameters: species or system Blood
[2] = molecular target: T1, Potassium voltage-gated channel subfamily A member 3; assay type: cell-based, CHO-K1
[3] = molecular target: T1, Potassium voltage-gated channel subfamily A member 3; parameters: species or system Blood

T1 sequence (P22001 whole entry): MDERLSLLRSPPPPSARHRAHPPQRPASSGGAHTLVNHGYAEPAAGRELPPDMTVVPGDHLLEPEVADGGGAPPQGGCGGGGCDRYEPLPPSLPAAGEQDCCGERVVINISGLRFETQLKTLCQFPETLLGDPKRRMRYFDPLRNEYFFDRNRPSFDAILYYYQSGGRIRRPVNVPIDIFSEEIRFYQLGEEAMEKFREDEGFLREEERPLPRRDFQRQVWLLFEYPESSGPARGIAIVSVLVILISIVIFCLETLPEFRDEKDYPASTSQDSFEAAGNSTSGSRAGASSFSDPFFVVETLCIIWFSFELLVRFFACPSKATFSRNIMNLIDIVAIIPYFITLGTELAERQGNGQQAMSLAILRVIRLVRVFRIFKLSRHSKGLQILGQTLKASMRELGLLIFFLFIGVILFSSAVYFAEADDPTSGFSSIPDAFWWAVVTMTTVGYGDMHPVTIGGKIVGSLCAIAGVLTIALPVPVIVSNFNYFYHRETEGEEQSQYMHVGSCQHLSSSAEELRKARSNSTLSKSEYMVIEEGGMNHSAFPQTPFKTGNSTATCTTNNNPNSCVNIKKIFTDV

| SMILES | IC50 [1] [nM] | IC50 [2] [nM] | IC50 [3] [nM] |
| --- | --- | --- | --- |
| CC[C@H](C)[C@@H]1NC(=O)[C@@H](NC(=O)[C@H](CO)NC(=O)[C@@H](N)CCCNC(=N)N)CSSC[C@@H](C(=O)O)NC(=O)[C@H]([C@@H](C)O)NC(=O)CNC(=O)[C@@H]2CSSC[C@@H]3NC(=O)[C@H](CCC(N)=O)NC(=O)[C@H](Cc4ccccc4)NC(=O)[C@H](C)NC(=O)[C@H]([C@@H](C)O)NC(=O)[C@H](CSSC[C@H](NC(=O)[C@H](Cc4ccccc4)NC(=O)[C@H](CO)NC(=O)[C@H](CC(C)C)NC(=O)[C@H](CCCNC(=N)N)NC(=O)[C@H](Cc4ccc(O)cc4)NC(=O)[C@H](CCCCN)NC(=O)[C@H](CCSC)NC(=O)[C@H](CO)NC(=O)[C@H](Cc4c[nH]cn4)NC(=O)[C@H](CCCCN)NC3=O)C(=O)N[C@@H](CCCNC(=N)N)C(=O)N[C@@H](CCCCN)C(=O)N[C@@H]([C@@H](C)O)C(=O)N2)NC(=O)[C@H](CCCNC(=N)N)NC(=O)[C@H](CO)NC(=O)[C@H](CCCCN)NC(=O)[C@@H]2CCCN2C(=O)[C@H]([C@@H](C)CC)NC(=O)[C@H](CCCCN)NC(=O)[C@H](CC(=O)O)NC1=O | 0.117 | 0.129 | 0.21 |
| CC[C@H](C)[C@@H]1NC(=O)[C@@H](NC(=O)[C@H](CO)NC(=O)[C@@H](N)CCCNC(=N)N)CSSC[C@@H](C(=O)O)NC(=O)[C@H]([C@@H](C)O)NC(=O)CNC(=O)[C@@H]2CSSC[C@@H]3NC(=O)[C@H](CCC(N)=O)NC(=O)[C@H](Cc4ccccc4)NC(=O)[C@H](C)NC(=O)[C@H]([C@@H](C)O)NC(=O)[C@H](CSSC[C@H](NC(=O)[C@H](CCC(=O)O)NC(=O)[C@H](CO)NC(=O)[C@H](CC(C)C)NC(=O)[C@H](CCCNC(=N)N)NC(=O)[C@H](Cc4ccc(O)cc4)NC(=O)[C@H](CCCCN)NC(=O)[C@H](CCSC)NC(=O)[C@H](CO)NC(=O)[C@H](Cc4cnc[nH]4)NC(=O)[C@H](CCCCN)NC3=O)C(=O)N[C@@H](CCCNC(=N)N)C(=O)N[C@@H](CCCCN)C(=O)N[C@@H]([C@@H](C)O)C(=O)N2)NC(=O)[C@H](CCCNC(=N)N)NC(=O)[C@H](CO)NC(=O)[C@H](CCCCN)NC(=O)[C@@H]2CCCN2C(=O)[C@H]([C@@H](C)CC)NC(=O)[C@H]([C@@H](C)O)NC(=O)[C@H](CC(=O)O)NC1=O | 8.16 | > 3.33 | 34 |
| CC[C@H](C)[C@@H]1NC(=O)[C@@H](NC(=O)[C@H](CO)NC(=O)[C@@H](N)CCCNC(=N)N)CSSC[C@@H](C(=O)O)NC(=O)[C@H]([C@@H](C)O)NC(=O)CNC(=O)[C@@H]2CSSC[C@@H]3NC(=O)[C@H](CCC(N)=O)NC(=O)[C@H](Cc4ccccc4)NC(=O)[C@H](C)NC(=O)[C@H]([C@@H](C)O)NC(=O)[C@H](CSSC[C@H](NC(=O)[C@H](Cc4ccccc4)NC(=O)[C@H](CO)NC(=O)[C@H](CC(C)C)NC(=O)[C@H](CCCNC(=N)N)NC(=O)[C@H](CCCNC(=N)N)NC(=O)[C@H](CCCCN)NC(=O)[C@H](CCSC)NC(=O)[C@H](CO)NC(=O)[C@H](Cc4cnc[nH]4)NC(=O)[C@H](CCCCN)NC3=O)C(=O)N[C@@H](CCCNC(=N)N)C(=O)N[C@@H](CCCCN)C(=O)N[C@@H]([C@@H](C)O)C(=O)N2)NC(=O)[C@H](CCCNC(=N)N)NC(=O)[C@H](CO)NC(=O)[C@H](CCCCN)NC(=O)[C@@H]2CCCN2C(=O)[C@H]([C@@H](C)CC)NC(=O)[C@H]([C@@H](C)O)NC(=O)[C@H](CC(=O)O)NC1=O | > 100 | > 3.33 | > 100 |
| CC[C@H](C)[C@@H]1NC(=O)[C@@H](NC(=O)[C@H](CO)NC(=O)[C@@H](N)CCCNC(=N)N)CSSC[C@@H](C(=O)O)NC(=O)[C@H]([C@@H](C)O)NC(=O)CNC(=O)[C@@H]2CSSC[C@@H]3NC(=O)[C@H](CCC(N)=O)NC(=O)[C@H](Cc4ccccc4)NC(=O)[C@H](C)NC(=O)[C@H]([C@@H](C)O)NC(=O)[C@H](CSSC[C@H](NC(=O)[C@H](Cc4ccccc4)NC(=O)[C@H](CO)NC(=O)[C@H](CC(C)C)NC(=O)[C@H](CCCNC(=N)N)NC(=O)[C@H](Cc4ccc(O)cc4)NC(=O)[C@H](CCCCN)NC(=O)[C@H](CCSC)NC(=O)[C@H](CO)NC(=O)[C@H](Cc4cnc[nH]4)NC(=O)[C@H](CCCCN)NC3=O)C(=O)N[C@@H](CCCNC(=N)N)C(=O)N[C@@H](CCCCN)C(=O)N[C@@H]([C@@H](C)O)C(=O)N2)NC(=O)[C@H](CCCNC(=N)N)NC(=O)[C@H](CO)NC(=O)[C@H](CCCCN)NC(=O)[C@@H]2CCCN2C(=O)[C@H]([C@@H](C)CC)NC(=O)[C@H]([C@@H](C)O)NC(=O)[C@H](Cc2cccc3ccccc23)NC1=O | 70.4 | > 3.33 | > 31.9 |

Next, values leading:

| IC50 [1] [nM] | IC50 [2] [nM] | IC50 [3] [nM] | SMILES |
| --- | --- | --- | --- |
| 0.038 | 0.104 | 0.056 | CC[C@H](C)[C@@H]1NC(=O)[C@@H](NC(=O)[C@H](CO)NC(=O)[C@@H](N)CCCNC(=N)N)CSSC[C@@H](C(=O)O)NC(=O)[C@H]([C@@H](C)O)NC(=O)CNC(=O)[C@@H]2CSSC[C@@H]3NC(=O)[C@H](CCC(N)=O)NC(=O)[C@H](Cc4ccccc4)NC(=O)[C@H](C)NC(=O)[C@H]([C@@H](C)O)NC(=O)[C@H](CSSC[C@H](NC(=O)[C@H](Cc4ccccc4)NC(=O)[C@H](CO)NC(=O)[C@H](CC(C)C)NC(=O)[C@H](CCCNC(=N)N)NC(=O)[C@H](Cc4ccc(O)cc4)NC(=O)[C@H](CCCCN)NC(=O)[C@H](CCSC)NC(=O)[C@H](CO)NC(=O)[C@H](Cc4cnc[nH]4)NC(=O)[C@H](CCCNC(=N)N)NC3=O)C(=O)N[C@@H](CCCNC(=N)N)C(=O)N[C@@H](CCCCN)C(=O)N[C@@H]([C@@H](C)O)C(=O)N2)NC(=O)[C@H](CCCNC(=N)N)NC(=O)[C@H](CO)NC(=O)[C@H](CCCCN)NC(=O)[C@@H]2CCCN2C(=O)[C@H]([C@@H](C)CC)NC(=O)[C@H]([C@@H](C)O)NC(=O)[C@H](CC(=O)O)NC1=O |
| 0.02 | 0.278 | 0.043 | CC[C@H](C)[C@@H]1NC(=O)[C@@H](NC(=O)[C@H](CO)NC(=O)[C@@H](N)CCCNC(=N)N)CSSC[C@@H](C(=O)O)NC(=O)[C@H]([C@@H](C)O)NC(=O)CNC(=O)[C@@H]2CSSC[C@@H]3NC(=O)[C@H](CCC(N)=O)NC(=O)[C@H](Cc4ccccc4)NC(=O)[C@H](C)NC(=O)[C@H]([C@@H](C)O)NC(=O)[C@H](CSSC[C@H](NC(=O)[C@H](Cc4ccccc4)NC(=O)[C@H](CO)NC(=O)[C@H](CC(C)C)NC(=O)[C@H](CCCNC(=N)N)NC(=O)[C@H](Cc4ccc(O)cc4)NC(=O)[C@H](CCCCN)NC(=O)[C@H](CCSC)NC(=O)[C@H](CO)NC(=O)[C@H](Cc4cnc[nH]4)NC(=O)[C@H](CCCCN)NC3=O)C(=O)N[C@@H](CCCNC(=N)N)C(=O)N[C@@H](CCC(=O)O)C(=O)N[C@@H]([C@@H](C)O)C(=O)N2)NC(=O)[C@H](CCCNC(=N)N)NC(=O)[C@H](CO)NC(=O)[C@H](CCCCN)NC(=O)[C@@H]2CCCN2C(=O)[C@H]([C@@H](C)CC)NC(=O)[C@H]([C@@H](C)O)NC(=O)[C@H](CC(=O)O)NC1=O |
| 1.07 | 0.223 | 2.84 | CC[C@H](C)[C@@H]1NC(=O)[C@@H](NC(=O)[C@H](CO)NC(=O)[C@@H](N)CCCNC(=N)N)CSSC[C@@H](C(=O)O)NC(=O)[C@H]([C@@H](C)O)NC(=O)CNC(=O)[C@@H]2CSSC[C@@H]3NC(=O)[C@H](CCC(N)=O)NC(=O)[C@H](Cc4ccccc4)NC(=O)[C@H](C)NC(=O)[C@H]([C@@H](C)O)NC(=O)[C@H](CSSC[C@H](NC(=O)[C@H](Cc4cccc5ccccc45)NC(=O)[C@H](CO)NC(=O)[C@H](CC(C)C)NC(=O)[C@H](CCCNC(=N)N)NC(=O)[C@H](Cc4ccc(O)cc4)NC(=O)[C@H](CCCCN)NC(=O)[C@H](CCSC)NC(=O)[C@H](CO)NC(=O)[C@H](Cc4cnc[nH]4)NC(=O)[C@H](CCCCN)NC3=O)C(=O)N[C@@H](CCCNC(=N)N)C(=O)N[C@@H](CCCCN)C(=O)N[C@@H]([C@@H](C)O)C(=O)N2)NC(=O)[C@H](CCCNC(=N)N)NC(=O)[C@H](CO)NC(=O)[C@H](CCCCN)NC(=O)[C@@H]2CCCN2C(=O)[C@H]([C@@H](C)CC)NC(=O)[C@H]([C@@H](C)O)NC(=O)[C@H](CC(=O)O)NC1=O |
| 0.785 | 0.152 | 1.1 | CC[C@H](C)[C@@H]1NC(=O)[C@@H](NC(=O)[C@H](CO)NC(=O)[C@@H](N)CCCNC(=N)N)CSSC[C@@H](C(=O)O)NC(=O)[C@H]([C@@H](C)O)NC(=O)CNC(=O)[C@@H]2CSSC[C@@H]3NC(=O)[C@H](CCC(N)=O)NC(=O)[C@H](Cc4ccccc4)NC(=O)[C@H](C)NC(=O)[C@H](CCC(=O)O)NC(=O)[C@H](CSSC[C@H](NC(=O)[C@H](Cc4ccccc4)NC(=O)[C@H](CO)NC(=O)[C@H](CC(C)C)NC(=O)[C@H](CCCNC(=N)N)NC(=O)[C@H](Cc4ccc(O)cc4)NC(=O)[C@H](CCCCN)NC(=O)[C@H](CCSC)NC(=O)[C@H](CO)NC(=O)[C@H](Cc4cnc[nH]4)NC(=O)[C@H](CCCCN)NC3=O)C(=O)N[C@@H](CCCNC(=N)N)C(=O)N[C@@H](CCCCN)C(=O)N[C@@H]([C@@H](C)O)C(=O)N2)NC(=O)[C@H](CCCNC(=N)N)NC(=O)[C@H](CO)NC(=O)[C@H](CCCCN)NC(=O)[C@@H]2CCCN2C(=O)[C@H]([C@@H](C)CC)NC(=O)[C@H]([C@@H](C)O)NC(=O)[C@H](CC(=O)O)NC1=O |
| 3.09 | 0.261 | 5.67 | CC[C@H](C)[C@@H]1NC(=O)[C@@H](NC(=O)[C@H](CO)NC(=O)[C@@H](N)CCCNC(=N)N)CSSC[C@@H](C(=O)O)NC(=O)[C@H]([C@@H](C)O)NC(=O)CNC(=O)[C@@H]2CSSC[C@@H]3NC(=O)[C@H](CCC(N)=O)NC(=O)[C@H](Cc4ccccc4)NC(=O)[C@H](C)NC(=O)[C@H]([C@@H](C)O)NC(=O)[C@H](CSSC[C@H](NC(=O)[C@H](Cc4ccccc4)NC(=O)[C@H](CO)NC(=O)[C@H](CC(C)C)NC(=O)[C@H](CCCNC(=N)N)NC(=O)[C@H](C)NC(=O)[C@H](CCCCN)NC(=O)[C@H](CCSC)NC(=O)[C@H](CO)NC(=O)[C@H](Cc4cnc[nH]4)NC(=O)[C@H](CCCCN)NC3=O)C(=O)N[C@@H](CCCNC(=N)N)C(=O)N[C@@H](CCCCN)C(=O)N[C@@H]([C@@H](C)O)C(=O)N2)NC(=O)[C@H](CCCNC(=N)N)NC(=O)[C@H](CO)NC(=O)[C@H](CCCCN)NC(=O)[C@@H]2CCCN2C(=O)[C@H]([C@@H](C)CC)NC(=O)[C@H]([C@@H](C)O)NC(=O)[C@H](CC(=O)O)NC1=O |
